Assay results from ChEMBL document CHEMBL1156363, “Cytotoxic cyclic norterpene peroxides from a Red Sea sponge Diacarnus erythraenus” (J Nat Prod, 2001).

Legend:
Format in all cases: functional, cell-based
HT-29 = assay: Cytotoxicity against human HT-29 cells
P388 = assay: Cytotoxicity against mouse P388 cells
A549 = assay: Cytotoxicity against human A549 cells

Measured: IC50

CO[C@@]1(C)CCC(C(C)C)=C[C@@H]2[C@H]1CC[C@]2(C)O
> 1 µg/mL: HT-29 | P388 | A549

CC(=O)CCCC(C)(C)C(=O)CC/C(C)=C/CC[C@@]1(C)CC[C@H]([C@H](C)C(=O)O)OO1 [AIKUPIKOXIDE A]
> 1 µg/mL: HT-29 | P388 | A549

C=C1CCCC(C)(C)C1(O)CC[C@@]1(C)CC[C@@H]([C@H](C)C(=O)OC)OO1 (stereo not given in full) [AIKUPIKOXIDE B]
> 1 µg/mL: HT-29 | P388 | A549

C=C(CCCC(C)(C)O)C(=O)CC[C@@]1(C)CC[C@@H]([C@H](C)C(=O)OC)OO1 [AIKUPIKOXIDE D]
> 1 µg/mL: HT-29 | P388 | A549

COC(=O)[C@@H](C)[C@@H]1CC[C@](C)(CCC(=O)C(C)(C)CCCC(C)=O)OO1 [DIACARPEROXIDE B]
> 1 µg/mL: HT-29 | P388 | A549
